Results taken from patent US9145414B2, “1,2,4-triazine-6-carboxamide derivative” (TAIHO PHARMACEUTICAL CO., LTD., priority 2011, dated 2015).
Like-named read-outs stand apart in the source and are kept apart here.

What was measured:
[1] = test system: recombinant human Aurora B protein; assay: Aurora B kinase activity inhibitory effect; assay type: biochemical; conditions: Aurora B IC50 relative to Syk IC50
Experimental: (§1) The reaction solution was left standing in the dark at room temperature for 120 minutes. Then, fluorescence polarization values obtained by measurement using PHERAstar (BMG LABTECH JAPAN Ltd., excitation wavelength: 485 nm, detection wavelength: 520 nm) were used to determine the rate of phosphorylation reaction.

[2] = target: recombinant human Aurora B protein (Homo sapiens (Human), UniProt Q96GD4); assay: Aurora B kinase activity inhibitory effect; assay type: biochemical; conditions: Table 97; read-out: AuroraB inhibitory activity IC50
Sequence of recombinant human Aurora B protein (Homo sapiens (Human), UniProt Q96GD4) (Q96GD4 whole entry): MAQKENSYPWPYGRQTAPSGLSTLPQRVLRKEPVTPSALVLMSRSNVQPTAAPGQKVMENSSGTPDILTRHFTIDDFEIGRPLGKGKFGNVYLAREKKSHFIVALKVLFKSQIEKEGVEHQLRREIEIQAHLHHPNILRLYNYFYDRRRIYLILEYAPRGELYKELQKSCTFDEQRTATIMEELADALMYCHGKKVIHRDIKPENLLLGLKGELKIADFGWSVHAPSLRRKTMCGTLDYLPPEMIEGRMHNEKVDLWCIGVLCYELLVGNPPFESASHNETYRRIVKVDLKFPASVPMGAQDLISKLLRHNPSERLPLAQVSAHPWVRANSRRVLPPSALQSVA
Experimental: as §1

[3] = test system: SU-DHL-6 cells (diffuse large-cell lymphoma cell line); assay: Cell growth inhibition test; assay type: cell-based; conditions: Homo sapiens, 72 h; SU-DHL-6 cells, 3 days culture, Table 96; read-out: Cell growth inhibition IC50
Experimental: The compound of the present invention was serially diluted with dimethyl sulfoxide and then added to an RPMI1640 medium containing 10% FBS. Each resulting solution was added at a concentration of 100 μl/well to the preceding SU-DHL-6 cell culture plate (final concentration of the compound: 10, 3, 1, 0.3, 0.1, 0.03, 0.01, and 0.003 μM). The cells were cultured at 37° C. for 3 days in an incubator containing 5% CO2. The cells thus cultured were left at room temperature for 30 minutes and then centrifuged at 1500 rpm for 3 minutes using a centrifuge (Hitachi Koki Co., Ltd., Himac CF7D2). A 100 μl aliquot of the supernatant was removed from each well to allow 100 μl of the cell culture solution to remain therein. This 100 μl of the remaining cell culture solution was supplemented with an equal amount of CellTiter-Glo Luminescent Cell Viability Assay (Promega KK, Cat#: G7573), and the mixture was then shaken for 1 minute using a plate mixer. The reaction solution was left in the dark for 10 minutes. Then, luminescence intensity derived from live cells of each well was measured using a microplate reader (PerkinElmer Inc., ARVOsx). […] Likewise, the IC50 values (μM) of the control compounds were also calculated and then compared with that of the compound of the present invention. Rate of cell growth inhibition(%)=(C−T)/C×100 T: luminescence intensity (count per second) of a well supplemented with the test compound C: luminescence intensity (count per second) of a well non-supplemented with the test compound

[4] = target: human Syk protein (Homo sapiens (Human), UniProt P43405); assay: Syk kinase inhibition test; assay type: biochemical; conditions: read-out: SYK inhibitory activity IC50
Experimental: Finally, phosphorylated peptides and non-phosphorylated peptides were separated therebetween using LabChip™ 3000 system (Caliper Life Sciences, Inc., excitation wavelength: 488 nm, detection wavelength: 530 nm). Their respective amounts were measured, and the rate of phosphorylation reaction was then determined from the ratio between the amounts. The concentration at which the compound can inhibit 50% phosphorylation reaction is defined as an IC50 value (μM).
Also, known 1,2,4-triazine-6-carboxamide derivatives A, B, and C (WO2000/075113 (A: compound No. 121 and B: compound No. 154) and WO2000/076980 (C: compound No. 39)) were synthesized as control compounds. Their IC50 values (μM) were calculated in the same way as above and then compared with that of the compound of the present invention.

[5] = target: recombinant human KDR protein (Homo sapiens (Human), UniProt P35968); assay: KDR kinase activity inhibitory effect; assay type: biochemical; conditions: for KDR inhibitory activity: Selectivity for Syk: KDR IC50 relative to Syk IC50; for IC50: Table 97
Sequence of recombinant human KDR protein (P35968 20-1356): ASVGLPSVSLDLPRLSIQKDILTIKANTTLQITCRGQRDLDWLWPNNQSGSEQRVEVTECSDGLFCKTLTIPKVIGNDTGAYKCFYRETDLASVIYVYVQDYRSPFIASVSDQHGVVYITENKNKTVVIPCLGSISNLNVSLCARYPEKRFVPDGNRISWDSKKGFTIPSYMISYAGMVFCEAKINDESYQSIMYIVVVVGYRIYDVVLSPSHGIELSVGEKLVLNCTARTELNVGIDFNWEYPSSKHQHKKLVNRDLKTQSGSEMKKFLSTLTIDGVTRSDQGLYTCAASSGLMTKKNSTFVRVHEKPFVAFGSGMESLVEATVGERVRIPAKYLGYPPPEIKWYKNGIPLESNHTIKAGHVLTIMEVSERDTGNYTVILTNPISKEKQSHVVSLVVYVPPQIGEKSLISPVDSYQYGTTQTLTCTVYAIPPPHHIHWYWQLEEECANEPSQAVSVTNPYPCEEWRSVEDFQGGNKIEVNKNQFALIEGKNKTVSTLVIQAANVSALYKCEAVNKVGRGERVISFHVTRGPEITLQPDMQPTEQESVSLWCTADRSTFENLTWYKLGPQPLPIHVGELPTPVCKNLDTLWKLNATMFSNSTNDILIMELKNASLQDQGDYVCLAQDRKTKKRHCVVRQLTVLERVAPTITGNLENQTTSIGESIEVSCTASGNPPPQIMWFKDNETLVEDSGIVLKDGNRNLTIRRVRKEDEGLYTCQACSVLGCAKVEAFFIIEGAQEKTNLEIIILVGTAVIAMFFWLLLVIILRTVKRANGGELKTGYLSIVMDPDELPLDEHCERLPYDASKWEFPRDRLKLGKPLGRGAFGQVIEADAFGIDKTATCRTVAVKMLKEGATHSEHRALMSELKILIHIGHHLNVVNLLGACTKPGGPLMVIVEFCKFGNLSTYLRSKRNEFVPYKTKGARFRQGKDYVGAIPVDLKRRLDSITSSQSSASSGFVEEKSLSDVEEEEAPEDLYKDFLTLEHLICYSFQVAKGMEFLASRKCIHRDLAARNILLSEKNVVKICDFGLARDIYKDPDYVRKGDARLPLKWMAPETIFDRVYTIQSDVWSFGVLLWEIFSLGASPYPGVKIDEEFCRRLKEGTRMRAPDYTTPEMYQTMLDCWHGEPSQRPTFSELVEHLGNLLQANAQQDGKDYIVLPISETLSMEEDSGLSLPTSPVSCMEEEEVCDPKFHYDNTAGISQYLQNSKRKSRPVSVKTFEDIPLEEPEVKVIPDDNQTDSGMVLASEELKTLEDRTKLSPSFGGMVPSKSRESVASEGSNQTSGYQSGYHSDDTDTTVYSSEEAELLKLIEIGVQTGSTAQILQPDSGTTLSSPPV
Experimental: The purified recombinant human KDR protein used in the test is a house purified product. […] The mixture was incubated at 30° C. for 180 minutes to perform kinase reaction. […] Their respective amounts were measured, and the rate of phosphorylation reaction was then determined from the ratio between the amounts.

SMILES: NC(=O)c1nnc(N[C@@H]2CCOC[C@@H]2N)nc1Nc1cccc2c1ccn2C1CC1 [Example 160]
- AuroraB inhibitory activity: Selectivity for Syk [1]: (4100 times)
- IC50 [2]: 1300 nM
- IC50 [3]: 165 nM
- IC50 ([4]; Table 95): 0.38 nM
- IC50 ([4]; Table 97): 0.38 nM
- KDR inhibitory activity: Selectivity for Syk [5]: (4400 times)
- IC50 [5]: 1400 nM

SMILES: NC(=O)c1nnc(N[C@@H]2CCCC[C@@H]2N)nc1Nc1ccc2cn(C(F)F)nc2c1 [Example 24, 3-((1R,2S)-2-aminocyclohexylamino)-5-(2-(difluoromethyl)-2H-indazol-6-ylamino)-1,2,4-triazine-6-carboxamide]
- AuroraB inhibitory activity: Selectivity for Syk [1]: (>20000 times)
- IC50 [2]: > 10000 nM
- IC50 [3]: 152 nM
- IC50 ([4]; Table 95): 0.53 nM
- IC50 ([4]; Table 97): 0.53 nM
- KDR inhibitory activity: Selectivity for Syk [5]: (>20000 times)
- IC50 [5]: > 10000 nM
